Laboratory results as given in PubChem BioAssay (NCI).
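Compound exposure: 48 hours, 5 concentrations, 96-well plates. TGI: total growth inhibition.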

Legend:
Experiment in all cases: inhibition of tumour cell growth, NCI panel, 48 h
[1] = tested on: MDA-MB-435
[2] = tested on: HL-60(TB) leukemia
[3] = tested on: OVCAR-4 ovarian
[4] = tested on: CCRF-CEM leukemia
[5] = tested on: HCT-15 colon
[6] = tested on: 786-0 renal
[7] = tested on: CAKI-1 renal
[8] = tested on: TK-10 renal
[9] = tested on: MALME-3M melanoma
[10] = tested on: COLO 205 colon
[11] = tested on: T-47D breast
[12] = tested on: UACC-62 melanoma
[13] = tested on: HOP-62 NSCLC
[14] = tested on: PC-3 prostate
[15] = tested on: MOLT-4 leukemia
[16] = tested on: MDA-N
[17] = tested on: SF-295 CNS
[18] = tested on: MCF7 breast
[19] = tested on: HCT-116 colon
[20] = tested on: SW-620 colon
[21] = tested on: SF-539 CNS
[22] = tested on: BT-549 breast
[23] = tested on: OVCAR-8 ovarian
[24] = tested on: ACHN renal
[25] = tested on: OVCAR-5 ovarian
[26] = tested on: LOX IMVI melanoma
[27] = tested on: DU-145 prostate
[28] = tested on: NCI/ADR-RES ovarian
[29] = tested on: RPMI-8226 leukemia
[30] = tested on: SN12C renal
[31] = tested on: HOP-92 NSCLC
[32] = tested on: SK-MEL-28 melanoma
[33] = tested on: HS 578T breast
[34] = tested on: HT29 colon
[35] = tested on: A549 NSCLC
[36] = tested on: UACC-257 melanoma
[37] = tested on: NCI-H522 lung
[38] = tested on: K-562 leukemia
[39] = tested on: KM12 colon
[40] = tested on: SK-OV-3 ovarian
[41] = tested on: NCI-H23 lung
[42] = tested on: SNB-19 CNS
[43] = tested on: SR leukemia
[44] = tested on: M14 melanoma
[45] = tested on: SF-268 CNS
[46] = tested on: U251 CNS
[47] = tested on: MDA-MB-231 breast
[48] = tested on: OVCAR-3 ovarian
[49] = tested on: SNB-75 CNS
[50] = tested on: HCC-2998 colon
[51] = tested on: SK-MEL-5 melanoma
[52] = tested on: IGROV1 ovarian
[53] = tested on: NCI-H460 lung
[54] = tested on: RXF 393 renal
[55] = tested on: NCI-H226 lung
[56] = tested on: UO-31 renal
[57] = tested on: EKVX NSCLC
[58] = tested on: SK-MEL-2 melanoma
[59] = tested on: A498 renal

Measured: TGI

CCCCCC(C(O)C#N)C(O)(C(F)(F)F)C(F)(F)F (stereo not drawn)
not listed: [53] | [54] | [55] | [56] | [57] | [58] | [59]
> 10 µM: all other assays above

N/C(CSCCSC/C(N)=N/O)=N\O
not listed: [17] | [23] | [36] | [58] | [59]
> 100 µM: all other assays above

Cc1ncc([N+](=O)[O-])n1CCNC(=O)CCCCn1ccnc1[N+](=O)[O-]
not listed: [3] | [8] | [26] | [27] | [29] | [31] | [32] | [54] | [57]
> 100 µM: all other assays above

O=C(O)c1cc2ccccc2c(S(=O)(=O)O)c1O
not listed: [43] | [55]
> 100 µM: all other assays above
